Key:
[1] = test system: MDM2 and p21 in SW480 colon carcinoma cells (endogenous His-273 mutant p53); assay: Western blot of MDM2 and p21, SW480; type: cell-based, human
Procedure: The expression of proteins was analyzed using Western blot. […] FIG. 10C pictures induction of p53 target genes in PRIMA-1-treated SW480 colon carcinoma cells carrying endogenous His-273/Ser-309 mutant p53.

[2] = target: T1, GST-wild type p53 protein (Homo sapiens, UniProt P04637); assay: ELISA of p53 conformation epitopes (PAb1620, PAb240, DO-1), recombinant protein; type: biochemical; settings: for appearance of PAb240 epitope (unfolding) upon heating: heating at 37° C.; for preservation of PAb 1620 epitope upon heating: recombinant wild type and mutant p53 proteins, 30 min at 37° C.
T1 construct: made in house
Procedure: Absorbance of the control sample incubated on ice was taken as 100%.
The procedure was performed with or without tested compounds. The ELISA analyses were done as described by (Foster et al., 1999). Briefly, after the treatment, samples were diluted with coating buffer (150 mM KCL, 25 mM HEPES) supplemented with 10 mM DTT. The whole mixture was apply to ELISA plates (MaxiSorp, Nunc) and incubated at +4° C. for 35 min. The wells were washed with coating buffer. The wells were blocked by 5% skim milk in PBS by incubating at +4° C. for 1 h. Wells were rinsed twice with PBS followed by addition of mouse primary antibodies (PAb 1620 or PAb 240) diluted 1:250 in coating buffer. Samples were incubated at +4° C. for 30 min. Wells were rinsed twice with PBS. After that, a secondary antibody (anti-mouse, conjugated with horse radish peroxidase) was incubated with samples at +4° C. for 30 min. Then plates were washed 5 times with PBS and a peroxidase substrate was added. An absorbance at λ405 nm was monitored by ELISA reader.

[3] = target: T2, GST-His-175 mutant p53 protein (Homo sapiens, UniProt P04637, R175H); assay: Band shift assay, GST-His-175 mutant p53; type: biochemical
T2 construct: made in house
Procedure: (§1) PAb421 antibody was added to all reaction mixtures. […] Monoclonal antibody PAb421 was added to the reaction mixtures in lanes 2-8; PAb1801 was added to the reaction mixtures in lanes 9-15.
(§2) The GST-p53 proteins were prepared as described (Selivanova et al., 1997). Band shift assays were performed in binding buffer containing 100 mM HEPES pH 7.5, 50 mM KCl, 1 mg/ml BSA, 0.1% Triton X-100, 2 mM MgC12 and 1 mM DTT essentially as in (Selivanova et al., 1996).

Saos-2-His-273 cells = assay: Apoptosis induction by FACS (sub-G1, propidium iodide), Saos-2-His-273; type: cell-based, human; settings: for time to apoptosis induction after treatment: data not shown; for p53 dependence of apoptosis induction: presence or absence of doxycyclin
Procedure: Induction of apoptosis was determined by FACS analysis of ethanol fixed cells stained with propidium iodide (PI) as percentage of a sub-G1 population. […] The percentage of dead cells in non-treated cultures and in controls treated with caspase inhibitors only was subtracted. […] Hoechst staining was used to stain cell nuclei.
Cells were placed on 12-well plate at a density of 30000/cm^2 and treated with compounds. After 48 h incubation cells were harvested by trypsinization, fixed with 70% ethanol, treated with RNase A (0.25 mg/ml) and stained with propidium iodide (0.02 mg/ml). Samples were analyzed on a Becton Dickinson FACScan. Data were analyzed by the CellQuest software, version 3.2.1.
Induction of cell death was determined by FACS analysis of ethanol-fixed cells stained with propidium iodide (PI) as percentage of sub-G1 population.

Saos-2 cells lacking p53 = assay: Colony formation assay, Saos-2 lacking p53; type: cell-based, human; settings: 5 μM, colonies counted after 14 days
Text: Colonies were stained with Giemsa and counted 14 days after seeding.
The cells were Giemsa stained and scored for the appearance of colonies after 14 days.

[4] = target: T3, endogenous mutant p53 proteins (Homo sapiens, UniProt P04637, R282W); type: biochemical; settings: cell extracts from Burkitt lymphoma BL-60 cells
T3 construct: cellular extracts of human tumor cell lines carrying different p53 mutants as a source for endogenous p53 protein; endogenous in cells; host or cells: human tumour cell lines (e.g. Burkitt lymphoma BL-60; KRC/Y renal carcinoma)
Procedure: as §1, §2

[5] = target: T4, endogenous mutant p53 proteins (Homo sapiens, UniProt P04637, C176F); type: biochemical; settings: KRC/Y cell extract
T4 construct: cellular extracts of human tumor cell lines carrying different p53 mutants as a source for endogenous p53 protein; endogenous in cells; host or cells: human tumour cell lines (e.g. Burkitt lymphoma BL-60; KRC/Y renal carcinoma)
Procedure: as §1, §2

[6] = target: T1, GST-wild type p53 protein; assay: Band shift assay, heat-inactivated GST-wild type p53; type: biochemical; settings: protein inactivated at 37° C. for 30 min
Procedure: Lane 3, inactivation of DNA binding of wtp53 by heating.
as §2
Therefore, the restoration of the DNA binding of this mutant was regarded as an exceptionally difficult task.

[7] = Toxicity assessment in SCID mice; type: in vivo
Procedure: (§3) All animal studies were approved by the local animal ethical committee and animal care was in accordance with institutional guidelines. For toxicity assessment, 12 SCID mice (average weight 25 g) were divided in 4 groups. […] Control animals were injected with PBS. We measured weights of the mice for 1 month after the last injection. […] After 3 days the mice were divided into 4 groups. […] Injections were performed twice daily for 3 days. Tumour volume was measured during 2 months.
(§4) In the untreated control group, the average tumour volume after 59 days was 555.7±284 mm3 (means±SE, n=3).

[8] = test system: p53-responsive lacZ reporter in A431 cells (endogenous His-273 mutant p53); assay: p53-responsive lacZ reporter in A431 cells; type: cell-based, human; settings: 50 μM for 20 hours
[9] = test system: Saos-2-His-273 human tumour xenografts; assay: Anti-tumour activity, Saos-2-His-273 xenograft in SCID mice; type: in vivo; settings: after 59 days
Procedure: SCID mice were injected with Saos-2-His-273 cells. […] Tumour volumes were measured once in three days for two months.
as §3, §4

[10] = recombinant protein treated with compound

Structure (SMILES)	induction of MDM2 and p21 [1]	appearance of PAb240 epitope (unfolding) upon heating [2]	increase in PAb1620+ fraction [2, 10]	reduction in PAb240+ fraction [2, 10]	preservation of PAb 1620 epitope upon heating [2]	restoration of specific DNA binding [3]	time to apoptosis induction after treatment (Saos-2-His-273 cells) [h]	p53 dependence of apoptosis induction (Saos-2-His-273 cells)	inhibition of colony formation (Saos-2 cells lacking p53) [%]	restoration of DNA binding of Trp-282 mutant p53 [4]	reactivation of Phe-176 mutant DNA binding [5]	restoration of specific DNA binding after heat inactivation [6]	DO-1+ fraction [2, 10]	average weight of mice ([7]; 100 mg/kg i.v. daily for 5 days, after one month of observation) [g]	changes in behavior or weight ([7]; intravenous injections, compared with untreated control)	lacZ reporter induction [8]	average tumour volume ([9]; 20 mg/kg i.v. twice a day for three days) [mm3]	average tumour volume ([9]; intratumour 20 mg/kg twice a day for three days) [mm3]	average tumour volume ([9]; intravenous 100 mg/kg twice a day for three days) [mm3]
CCCOCN1C(=O)C=CC1=O [MIRA-1, 1-(propoxymethyl)-maleimide]	induced MDM2 and p21	able to prevent unfolding of p53 proteins	About 40%	−20%	preserve the conformation-dependent epitope for PAb 1620 antibody	able to restore the specific DNA binding of the GST-His-175 mutant p53 protein	6 to 12	occurred only in the presence of p53 expression	48	able to restore the sequence-specific DNA binding of the endogenous Trp-282 mutant p53	not reactivated	able to restore the specific DNA binding of the GST-wild type p53 protein							
O=C1C2CCN(CC2)C1(CO)CO [PRIMA-1, 2,2-bis(hydroxymethyl)-1-azabicyclo[2.2.2]octan-3-one]	induced MDM2 and p21	able to prevent unfolding of p53 proteins	40%	corresponding decrease	preserve the conformation-dependent epitope for PAb 1620 antibody		48	occurred only in the presence of p53 expression				able to restore the specific DNA binding of the GST-wild type p53 protein	remained unchanged	20 ± 0.2	did not cause any obvious changes in behavior or weight	appearance of lacZ-positive cells	53±48.5	5.3±2.7	11.7±8

Source: patent publication US7659278B2, “Use of low molecular weight compounds for preparing a medicament useful in treating mutant p53 mediated diseases” (Aprea AB, priority 2002, dated 2010)
